These results are taken from patent US12569506B2, “Methods of treating osteonecrosis with LLP2A-bisphosphonate compounds” (The Regents of the University of California, priority 2016, dated 2026).

“Also recorded” adds a separate entry of the source.

The subject of assay [1] is dexamethasone-treated mice. Put plainly: 30 and 45 day prevention study: incidence of glucocorticoid-induced osteonecrosis. The assay is classed as in vivo, BALB/c mice. To be noted: 30 or 45 days; Dex + LLP2A-Ale 250 or 500 μg/kg, or Dex + 40 μg/kg hPTH five times a week (FIG. 12). The method, then:
FIG. 12. Reduction in incidence of glucocorticoid-induced osteonecrosis in mice treated with recombinant LLP2A-Ale. Mice were randomized into placebo (PL) (fresh water), dexamethasone (Dex) 4 mg/l in drinking water, Dex+250 μg/kg LLP2A-Ale, Dex+500 μg/kg LLP2A-Ale, or Dex+40 μg/kg hPTH (1-34) groups for a 30 day treatment period or a 45 day treatment period. The incidence of Dex-induced osteonecrosis was 57% on day 30 and 73% on day 45.
(§1) The efficacy of LLP2A-Ale and hPTH (1-34) was evaluated over a 30 and 45 day study using a mouse model of glucocorticoid-induced osteonecrosis. Seven week-old male BALB/c mice were randomized into Placebo group (fresh water), glucocorticoid only (4 mg/L dexamethasone (Dex) in drinking water), Dex+250 μg/kg LLP2A-Ale, Dex+500 μg/kg LLP2A-Ale, or Dex+40 μg/kg hPTH (administered five times a week) for 30 or 45 days. At day 30 or 45, the mice were sacrificed. Study endpoints included histological evidence of osteonecrosis, bone mass, and prevalent blood vessels (CD31 and Endomucin expression) in the distal femur, and was performed as set forth in Example 2. Non-parametric Kruskal-Wallis tests were used to determine the differences between the groups.

In assay [2] the test system is CD31 and Endomucin expression. The experiment in a line: 30 and 45 day prevention study: blood vessels in the distal femur (CD31 and Endomucin expression). The assay is classed as in vivo, BALB/c mice. The following applies: 30 and 45 day study, conclusion. The method, then:
as §1

Assay [3] relates to dexamethasone-treated mice. Put plainly: 30 and 45 day prevention study: trabecular bone histology of distal femur epiphyses. The assay is classed as in vivo, BALB/c mice. The method, then:
as §1

The subject of assay [4] is dexamethasone-treated mice. Put plainly: Adipose and sinusoid volume of distal femoral epiphysis, 90 day model. The assay is classed as in vivo, BALB/c mice. The protocol: FIG. 10A-10B. Adipose and sinusoid volume of femurs from treated mice. Mice were treated with placebo (PL), dexamethasone alone (Dex), Dex+250 μg/kg LLP2A-Ale, Dex+500 μg/kg LLP2A-Ale, or Dex+750 μg/kg LLP2A-Ale as described above for FIG. 7. (A) Mice were assessed for adipose volume within the distal femoral epiphysis region. […] (B) Mice were assessed for sinusoids in the bone marrow.
Both the right and left distal femurs were fixed in 10% neutral buffered formalin and were shaken for 3 days, then decalcified in 5% EDTA until the bones were fully decalcified. The specimens were then processed in ascending concentrations of ethanol and embedded in paraffin. Tissue sections were cut into 5 microns sections, stained with hematoxylin and eosin and evaluated for the presence of osteonecrosis by bright field microscopy at 20× magnification. Experimental methods are also described in Mohan et al., Calif Tissue Int (2016) doi:10.1007/s00223-016-0195-6, which is incorporated herein by reference in its entirety for all purposes. Osteonecrosis was detected using modified criteria reported by Yang el al., (a mouse model for glucocorticoid-induced osteonecrosis: Effect of a steroid holiday. J Orthop Res. 2009; 27:169-75) which defines osteonecrosis as requiring all of the following changes: (1) empty lacunae, (2) pyknotic osteocyte nuclei in areas of empty lacunae and necrosis of adjacent bone marrow, (3) presence of excessive fat cells in the bone marrow, (4) cartilage degradation and (5) presence of fibrin thrombi in the blood vessels. In addition, trabecular bone volume, adipose volume, sinusoid volume and osteoblast surface at the distal femoral epiphyses were measured. Empty lacunae density was calculated by empty lacunae/total osteocytes within the entire distal femoral epiphysis region for each sample. Each section was scored by two experienced histologists, then a consensus reading was performed by two additional experienced histologists.

The subject of assay [5] is glucocorticoid-treated mice. Put plainly: 56 day mouse model of glucocorticoid-induced osteonecrosis: femur blood vessel / vascular density by microCT. The assay is classed as in vivo. The method, then: FIG. 2. Blood vessel density of femurs from glucocorticoid-treated mice. 4 month old male mice were treated glucocorticoid (“GC”) or placebo for 56 days. At day 28 a group of glucocorticoid-treated mice were treated with LLP2A-Ale or PTH for an additional 28 days.
FIG. 3. Vascular density of femurs from glucocorticoid-treated mice. 4 month old male mice were treated with glucocorticoid or placebo for 56 days. At day 28 a group of glucocorticoid-treated mice were treated with LLP2A-Ale or PTH for an additional 28 days. At day 56 animals were given a contrast agent and then sacrificed and then the animals femurs were decalcified and then scanned by microCT.
The efficacy of LLP2A-Ale was evaluated using a mouse model of glucocorticoid-induced osteonecrosis. 4-month-old male mice were treated for 56 days with glucocorticoids. At day 28, a group of mice was treated with either LLP2A-Ale or PTH for an additional 28 days. Blood vessel density of the femur was measured after sacrifice by microCT according to published methods. […] Vascular density of the femurs of glucocorticoid-treated mice subsequently treated with LLP2A-Ale or PTH was also assessed by giving the mice a contrast agent, then sacrificing the mice, decalcifying the femurs, and scanning the femurs by microCT. […] Without being bound to a particular theory, it is believed that LLP2A-Ale promotes increased vascularity by bringing MSCs to the bone that is turning over with osteonecrosis, which stimulates new blood vessel formation, which in turn is needed to stimulate new bone formation in the osteonecrotic bone.

On to `Cc1ccccc1NC(=O)Nc1ccc(CC(=O)N[C@@H](CCCCNC(=O)/C=C/c2cccnc2)C(=O)N[C@@H](CCCC(=O)O)C(=O)NC2(C(=O)NCCOCCOCCNC(=O)CCC(=O)NCCOCCOCCNC(=O)CCC(=O)N[C@@H](CCCCNC(=O)[C@H](N)CSC3CC(=O)N(CC4CCC(C(=O)NCCCC(O)(P(=O)(O)O)P(=O)(O)O)CC4)C3=O)C(N)=O)CCCCC2)cc1` (stereo partly drawn) [LLP2A-Ale], for which the “Prevalence/incidence of glucocorticoid-induced osteonecrosis lesions (in words)” value in assay [1] is “prevented incident GC-induced osteonecrosis lesions; also recorded: reduced the incidence and severity of osteonecrosis; also recorded: prevented glucocorticoid-induced osteonecrotic lesions”. For the same molecule, in assay [2], the “Vascular integrity of the distal femur” value is given as “maintained the vascular integrity”. The Trabecular bone volume entry in assay [3] (day 30 and 45, Dex vs placebo, treated vs Dex (p<0.05)) was “higher bone volume”. The Trabecular separation result in assay [3] (vs Dex group, day 30 and 45 (p<0.05)) is recorded as “lower trabecular separation”. In assay [4] (LLP2A-Ale above 250 μg/kg vs 250 μg/kg), the “Sinusoid volume on increasing the dose” value is “marginal decrease”. In addition, the “Adipose volume within the distal femoral epiphysis” value in assay [4] (all three dosages (250, 500, 750 μg/kg) vs Dex alone, day 90 (FIG. 10A)) is “reduced adipose volumes”. Also, in assay [4] (all three dosages vs placebo or Dex alone, day 90 (FIG. 10B)), the “Sinusoid volume in the bone marrow” value is “increased sinusoid volumes”. The “Blood vessel density of the femur” value in assay [5] (4 month old male mice, GC 56 days, LLP2A-Ale or PTH from day 28 for 28 days, microCT after sacrifice (FIG. 2)) is listed as “significantly higher than the negative control; also recorded: significantly different from all other groups”. Besides, the “Vascular density of femurs” value in assay [5] (contrast agent at day 56, decalcified femurs scanned by microCT (FIG. 3), vs GC alone) is listed as “increased vascular density compared to glucocorticoid alone; also recorded: increased vascular density compared to GC alone”.
